Laboratory results: US20070117743A1, “New antitumoral compounds” (priority 2003, published 2007)
Read-outs that look alike come from different tables or passages of the source. Where a SMILES comes first, the peptide text is derived from it. Bridges are numbered along the chain shown (N, C = ends). [ ]: non-standard residue; d: D form. The star is where a group is joined. d(aIle) = CC[C@H](C)[C@@H](N)C(=O)O; d(aThr) = C[C@@H](O)[C@@H](N)C(=O)O; Hexanoyl(5-Me) = CC(C)CCCC(=O)*; Orn = NCCC[C@H](N)C(=O)O; Dhb = C/C=C(\N)C(=O)O

Legend:
Format in all cases: cell-based, human
A-549 = experiment: SRB colorimetric assay of cell growth and viability, A-549; settings: 48 hours exposure; for GI50: read-out: GI50 A-549; for CC50: read-out: LC50 A-549
SK-MEL-28 = experiment: SRB colorimetric assay of cell growth and viability, SK-MEL-28; settings: 48 hours exposure; for CC50: read-out: LC50 MEL-28
HT-29 = experiment: SRB colorimetric assay of cell growth and viability, HT-29; settings: 48 hours exposure; for GI50: read-out: GI50 HT-29; for CC50: read-out: LC50 HT-29
LoVo = experiment: SRB colorimetric assay of cell growth and viability, LoVo; settings: 48 hours exposure; for CC50: read-out: LC50 LOVO
LoVo-Dox = experiment: SRB colorimetric assay of cell growth and viability, LoVo-Dox; settings: 48 hours exposure; for CC50: read-out: LC50 LOVO-DOX
Summary of the method: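 Here, cells grow drug-free for 18 h, then receive sample dilutions from 10 down to 10^−8 μg/mL for 48 h at 37° C. Protein-bound SRB is solubilized in Tris and quantified at 490 nm.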

DU-145 = experiment: SRB colorimetric assay of cell growth and viability, DU-145; settings: 48 hours exposure
LNCaP = experiment: SRB colorimetric assay of cell growth and viability, LNCaP; settings: 48 hours exposure; for GI50: read-out: GI50 LN-caP; for CC50: read-out: LC50 LN-caP
SK-BR-3 = experiment: SRB colorimetric assay of cell growth and viability, SK-BR-3; settings: 48 hours exposure
IGROV-1 = experiment: SRB colorimetric assay of cell growth and viability, IGROV-1; settings: 48 hours exposure
IGROV-ET = experiment: SRB colorimetric assay of cell growth and viability, IGROV-ET; settings: 48 hours exposure; for CC50: read-out: LC50 IGROV-ET
HeLa = experiment: SRB colorimetric assay of cell growth and viability, HeLa; settings: 48 hours exposure; for CC50: read-out: LC50 HELA
HeLa-APL = experiment: SRB colorimetric assay of cell growth and viability, HeLa-APL; settings: 48 hours exposure; for CC50: read-out: LC50 HELA-APL
K-562 = experiment: SRB colorimetric assay of cell growth and viability, K-562; settings: 48 hours exposure; for CC50: read-out: LC50 K-562
PANC-1 = experiment: SRB colorimetric assay of cell growth and viability, PANC-1; settings: 48 hours exposure; for CC50: read-out: LC50 PANC-1

With C/C=C1\NC(=O)[C@H](Cc2ccccc2)NC(=O)[C@@H](C(C)C)NC(=O)[C@@H]([C@@H](C)CC)NC(=O)[C@H](NC(=O)[C@H](NC(=O)[C@H](CCCN)NC(=O)[C@H]2CCCN2C(=O)[C@H](NC(=O)[C@@H](NC(=O)[C@@H](NC(=O)[C@H](NC(=O)CCCC(C)C)C(C)C)[C@@H](C)O)[C@@H](C)O)C(C)C)[C@@H](C)CC)[C@@H](C)OC(=O)[C@H](C(C)C)NC1=O [Compound 50, [Thr^11]-KF] ({Hexanoyl(5-Me)}-[dV]TT[dV][dP][Orn][d(aIle)][d(aThr)][d(aIle)][dV]F[Dhb]V; ester 8-C) the “TGI A-549” value (A-549) was 6.76E−06 Molar, the GI50 (A-549) was at least 6.76 µM and the CC50 (A-549) was at least 6.76 µM. The GI50 (SK-MEL-28) was at least 6.76 µM, the “TGI MEL-28” value (SK-MEL-28) was 6.76E−06 Molar and the CC50 (SK-MEL-28) was at least 6.76 µM. The “TGI HT-29” value (HT-29) was 6.76E−06 Molar, the GI50 (HT-29) was 3.76 µM and the CC50 (HT-29) was at least 6.76 µM. For the same compound, the GI50 (LoVo) was 1.21 µM, the “TGI LOVO” value (LoVo) was 2.80E−06 Molar and the CC50 (LoVo) was 6.47 µM. The GI50 (LoVo-Dox) was 1.27 µM, the “TGI LOVO-DOX” value (LoVo-Dox) was 2.54E−06 Molar and the CC50 (LoVo-Dox) was 5.1 µM. The GI50 (DU-145) was at least 6.7 µM, the LC50 (concentration causing 50% net cell kill) (DU-145) was at least 6.76 µM and the “TGI DU-145” value (DU-145) was 6.76E−06 Molar. For the same compound, the “TGI LN-caP” value (LNCaP) was 6.76E−06 Molar, the GI50 (LNCaP) was at least 6.76 µM and the CC50 (LNCaP) was at least 6.76 µM. For the same compound, the GI50 (SK-BR-3) was 0.899 µM, the LC50 (SK-BR-3) was at least 6.76 µM and the “TGI SK-BR-3” value (SK-BR-3) was 2.58E−06 Molar. The GI50 (IGROV-1) was 3.76 µM, the LC50 (concentration causing 50% net cell killing) (IGROV-1) was at least 6.76 µM and the “TGI IGROV” value (IGROV-1) was 6.76E−06 Molar. For the same compound, the GI50 (IGROV-ET) was 2.7 µM, the “TGI IGROV-ET” value (IGROV-ET) was 6.76E−06 Molar and the CC50 (IGROV-ET) was at least 6.76 µM. For the same compound, the GI50 (HeLa) was 5.58 µM, the “TGI HELA” value (HeLa) was 6.76E−06 Molar and the CC50 (HeLa) was at least 6.76 µM. The GI50 (HeLa-APL) was at least 6.76 µM, the “TGI HELA-APL” value (HeLa-APL) was 6.76E−06 Molar and the CC50 (HeLa-APL) was at least 6.76 µM. For the same compound, the GI50 (K-562) was at least 6.76 µM, the “TGI K-562” value (K-562) was 6.76E−06 Molar and the CC50 (K-562) was at least 6.76 µM. The GI50 (PANC-1) was 4.16 µM, the “TGI PANC-1” value (PANC-1) was 6.76E−06 Molar and the CC50 (PANC-1) was at least 6.76 µM.
With C/C=C1\NC(=O)[C@H](Cc2ccccc2)NC(=O)[C@@H](C(C)C)NC(=O)[C@@H]([C@@H](C)CC)NC(=O)[C@H](NC(=O)[C@H](NC(=O)[C@H](CCCN)NC(=O)[C@H]2CCCN2C(=O)[C@H](NC(=O)[C@H](CCC(=O)O)NC(=O)[C@@H](NC(=O)[C@H](NC(=O)CCCC(C)C)C(C)C)[C@@H](C)O)C(C)C)[C@@H](C)CC)[C@@H](C)OC(=O)[C@H](C(C)C)NC1=O [Compound 51, [Glu^11]-KF] ({Hexanoyl(5-Me)}-[dV]TE[dV][dP][Orn][d(aIle)][d(aThr)][d(aIle)][dV]F[Dhb]V; ester 8-C) the “TGI A-549” value (A-549) was 6.63E−06 Molar, the GI50 (A-549) was 6.63 µM and the CC50 (A-549) was 6.63 µM. For the same compound, the GI50 (SK-MEL-28) was 6.63 µM, the “TGI MEL-28” value (SK-MEL-28) was 6.63E−06 Molar and the CC50 (SK-MEL-28) was 6.63 µM. The “TGI HT-29” value (HT-29) was 6.63E−06 Molar, the GI50 (HT-29) was 6.63 µM and the CC50 (HT-29) was 6.63 µM. The GI50 (LoVo) was 6.63 µM, the “TGI LOVO” value (LoVo) was 6.63E−06 Molar and the CC50 (LoVo) was 6.63 µM. The GI50 (LoVo-Dox) was 6.63 µM, the “TGI LOVO-DOX” value (LoVo-Dox) was 6.63E−06 Molar and the CC50 (LoVo-Dox) was 6.63 µM. For the same compound, the GI50 (DU-145) was 6.63 µM, the LC50 (concentration causing 50% net cell kill) (DU-145) was 6.63 µM and the “TGI DU-145” value (DU-145) was 6.63E−06 Molar. The “TGI LN-caP” value (LNCaP) was 6.63E−06 Molar, the GI50 (LNCaP) was 6.63 µM and the CC50 (LNCaP) was 6.63 µM. For the same compound, the GI50 (SK-BR-3) was 6.63 µM, the LC50 (SK-BR-3) was 6.63 µM and the “TGI SK-BR-3” value (SK-BR-3) was 6.63E−06 Molar. The GI50 (IGROV-1) was 6.63 µM, the LC50 (concentration causing 50% net cell killing) (IGROV-1) was 6.63 µM and the “TGI IGROV” value (IGROV-1) was 6.63E−06 Molar. The GI50 (IGROV-ET) was 6.63 µM, the “TGI IGROV-ET” value (IGROV-ET) was 6.63E−06 Molar and the CC50 (IGROV-ET) was 6.63 µM. The GI50 (HeLa) was 6.63 µM, the “TGI HELA” value (HeLa) was 6.63E−06 Molar and the CC50 (HeLa) was 6.63 µM. The GI50 (HeLa-APL) was 6.63 µM, the “TGI HELA-APL” value (HeLa-APL) was 6.63E−06 Molar and the CC50 (HeLa-APL) was 6.63 µM. The GI50 (K-562) was 6.63 µM, the “TGI K-562” value (K-562) was 6.63E−06 Molar and the CC50 (K-562) was 6.63 µM. For the same compound, the GI50 (PANC-1) was 6.63 µM, the “TGI PANC-1” value (PANC-1) was 6.63E−06 Molar and the CC50 (PANC-1) was 6.63 µM.
With C/C=C1\NC(=O)[C@H](Cc2ccccc2)NC(=O)[C@@H](C(C)C)NC(=O)[C@@H]([C@@H](C)CC)NC(=O)[C@H](NC(=O)[C@H](NC(=O)[C@H](CCCN)NC(=O)[C@H]2CCCN2C(=O)[C@H](NC(=O)[C@@H](NC(=O)[C@H](CCC(N)=O)NC(=O)CCCC(C)C)C(C)C)C(C)C)[C@@H](C)CC)[C@@H](C)OC(=O)[C@H](C(C)C)NC1=O [Compound 58, [Gln^12, noD-Val^13]-KF] ({Hexanoyl(5-Me)}-QV[dV][dP][Orn][d(aIle)][d(aThr)][d(aIle)][dV]F[Dhb]V; ester 7-C) the “TGI A-549” value (A-549; SRB) was 7.11E−06 Molar, the GI50 (A-549; SRB) was at least 7.11 µM and the CC50 (A-549; SRB) was at least 7.11 µM. The GI50 (SK-MEL-28) was at least 7.11 µM, the “TGI MEL-28” value (SK-MEL-28) was 7.11E−06 Molar and the CC50 (SK-MEL-28) was at least 7.11 µM. For the same compound, the “TGI HT-29” value (HT-29; SRB) was 7.11E−06 Molar, the GI50 (HT-29; SRB) was at least 7.11 µM and the CC50 (HT-29; SRB) was at least 7.11 µM. For the same compound, the GI50 (LoVo; SRB) was at least 7.11 µM, the “TGI LOVO” value (LoVo; SRB) was 7.11E−06 Molar and the CC50 (LoVo; SRB) was at least 7.11 µM. The GI50 (LoVo-Dox; SRB) was at least 7.11 µM, the “TGI LOVO-DOX” value (LoVo-Dox; SRB) was 7.11E−06 Molar and the CC50 (LoVo-Dox; SRB) was at least 7.11 µM. For the same compound, the GI50 (DU-145) was at least 7.11 µM, the LC50 (concentration causing 50% net cell kill) (DU-145) was at least 7.11 µM and the “TGI DU-145” value (DU-145) was 7.11E−06 Molar. For the same compound, the “TGI LN-caP” value (LNCaP) was 7.11E−06 Molar, the GI50 (LNCaP) was at least 7.11 µM and the CC50 (LNCaP) was at least 7.11 µM. For the same compound, the GI50 (SK-BR-3) was at least 7.11 µM, the LC50 (SK-BR-3) was at least 7.11 µM and the “TGI SK-BR-3” value (SK-BR-3) was 7.11E−06 Molar. The GI50 (IGROV-1) was at least 7.11 µM, the LC50 (concentration causing 50% net cell killing) (IGROV-1) was at least 7.11 µM and the “TGI IGROV” value (IGROV-1) was 7.11E−06 Molar. For the same compound, the GI50 (IGROV-ET) was at least 7.11 µM, the “TGI IGROV-ET” value (IGROV-ET) was 7.11E−06 Molar and the CC50 (IGROV-ET) was at least 7.11 µM. For the same compound, the GI50 (HeLa; SRB) was at least 7.11 µM, the “TGI HELA” value (HeLa; SRB) was 7.11E−06 Molar and the CC50 (HeLa; SRB) was at least 7.11 µM. The GI50 (HeLa-APL; SRB) was at least 7.11 µM, the “TGI HELA-APL” value (HeLa-APL; SRB) was 7.11E−06 Molar and the CC50 (HeLa-APL; SRB) was at least 7.11 µM. For the same compound, the GI50 (K-562; SRB) was at least 7.11 µM, the “TGI K-562” value (K-562; SRB) was 7.11E−06 Molar and the CC50 (K-562; SRB) was at least 7.11 µM. For the same compound, the GI50 (PANC-1; SRB) was at least 7.11 µM, the “TGI PANC-1” value (PANC-1; SRB) was 7.11E−06 Molar and the CC50 (PANC-1; SRB) was at least 7.11 µM.
